Results: patent US11161819B2, “Substituted tetrahydroisoquinoline compounds useful as GPR120 agonists” (Merck Sharp & Dohme Corp., priority 2016, dated 2021)
pEC50: −log10 of the molar value.

Molecular target: T1, human GPR120 (Homo sapiens, UniProt Q5NUL3)
T1 construct: expressed in transfected cells
T1 sequence (Q5NUL3 1-361): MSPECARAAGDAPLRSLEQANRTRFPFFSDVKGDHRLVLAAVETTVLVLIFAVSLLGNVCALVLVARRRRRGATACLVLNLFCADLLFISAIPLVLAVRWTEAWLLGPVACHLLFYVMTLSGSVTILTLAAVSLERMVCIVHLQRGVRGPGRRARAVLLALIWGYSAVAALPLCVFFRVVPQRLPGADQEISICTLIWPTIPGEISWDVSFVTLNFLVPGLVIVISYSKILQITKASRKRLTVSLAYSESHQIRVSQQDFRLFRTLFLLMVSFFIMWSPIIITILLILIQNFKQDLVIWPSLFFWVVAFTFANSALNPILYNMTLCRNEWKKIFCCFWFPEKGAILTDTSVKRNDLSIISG
Experiment: Human GPR120 IP1 Assay (inositol phosphate turnover, CisBio IP-One kit)
Format: cell-based
Conditions: IP1 accumulation in CHO-K1 cells stably expressing the short form of human GPR120; 60 min compound incubation; 4-parameter fit; read-out: hGPR120 EC50
From the text: Human GPR120 IP1 Assay Principle
The binding of small molecule agonists to the G-protein-coupled receptor GPR120 activates phospholipase C, and leads to the generation of inositol 1,4,5-trisphosphate (InsP3 or IP3). IP3 is subsequently de-phosphorylated to IP1, which accumulates in cells and is stable in the presence of lithium chloride.
In the present method, agonist-induced activation of the human GPR120 receptor was monitored by measuring the accumulation of IP1 in CHO-K1 cells that were stably expressing the short form of human GPR120 (Accession #NM_001195755). Following agonist addition, GPR120 activation and subsequent accumulation of IP1 was measured using a homogeneous Time Resolved Fluorescence-based ELISA commercially available from CisBio (IP-one ELISA Kit). The IP-One ELISA was a competitive immunoassay which uses IP1 labeled with […] and a terbium cryptate-labeled anti-IP1 monoclonal antibody. […] The signal loss was then back calculated to IP1 concentration using an IP1 standard curve. Determination of IP1 concentration was a direct measure of GPR120 activation and was used to determine compound potency (EC50).
Generation of GPR120-Expressing Cells:
Human GPR120 stable cell-lines were generated in CHO cells. The expression plasmids were transfected using lipofectamine (Life Technologies) following manufacturer's instructions. Stable cell-lines were generated following drug selection and single cell cloning.
Inositol Phosphate Turnover (IP1) Assay:
The assay was performed in 384-well format. CHO cells stably expressing human GPR120 were plated at […] per well in growth medium (DMEM/F12, 10% fetal calf serum). Cell plates were then incubated 16 hours at 37 degrees in a 5% CO2 incubator. Measurement of Inositol Phosphate Turnover (IP1) was performed using the CisBio IP-One kit (Part number 62IPAPEB). After the 16 hour incubation, the growth media was removed by centrifugation using the BlueWasher (AusWasher GUI Ver. v1.0.1.8) Protocol #21-“Light Dry” and 10 ul of stimulation buffer (prepared as described in the kit) was added to each well. In a separate plate, compounds were diluted in DMSO (200-fold over the final concentration in the assay well) and 50 nl was acoustically transferred to the appropriate well in the assay cell plate. The plates were then incubated for 60 minutes at 37 degrees in a 5% CO2 incubator. 10 ul of detection buffer (also prepared as described in the IP-One kit) was added to each well and the plates were incubated at room temperature for 60 minutes in the dark. The plates were then read in a Perkin Elmer EnVision or equivalent reader able to measure FRET. Fluorescent ratio of emission at 665 and 620 nm was then converted to the IP1 concentration by back calculating from an IP1 standard curve prepared at the time of the assay. The data was normalized to % activity using a reference compound, and the EC50 values were determined using a standard 4-parameter fit.

| SMILES | pEC50 |
| --- | --- |
| Cc1ccc(-n2nc(C)c(F)c2N2CCc3cc(C4CC4C(=O)O)ccc3C2)cc1 (centres unmarked) [Example 94, 2-{2-[4-fluoro-3-methyl-1-(4-methylphenyl)-1H-pyrazol-5-yl]-1,2,3,4-tetrahydroisoquinolin-6-yl}cyclo-propanecarboxylic acid] | 6.33 |
| Cc1nn(-c2ccc(F)cc2)c(N2CCc3cc(C4CC4C(=O)O)ccc3C2)c1F (centres unmarked) [Example 95, 2-{2-[4-fluoro-1-(4-fluorophenyl)-3-methyl-1H-pyrazol-5-yl]-1,2,3,4-tetrahydroisoquinolin-6-yl} cyclo-propanecarboxylic acid] | 6.31 |
| COc1ccc(-n2nc(C)c(C#N)c2N2CCc3cc(CCC(=O)O)ccc3C2)cc1 [Example 43, 3-{2-[4-cyano-1-(4-methoxy-phenyl)-3-methyl-1H-pyrazol-5-yl]-1,2,3,4-tetrahydroisoquinolin-6-yl}propanoic acid] | 5.83 |
| COc1ccc(-n2nc(C)c(C#N)c2N2CCc3ccccc3C2)cc1 [Example 141, 5-(3,4-dihydroisoquinolin-2(1H)-yl)-1-(4-methoxyphenyl)-3-methyl-1H-pyrazole-4-carbonitrile] | 6.54 |
| CC(Cc1ccc2c(c1F)CCN(c1cc(OC3CCC3)cc(F)c1C#N)C2)C(=O)O (centres unmarked) [Example 79, 3-(2-(2-cyano-5-cyclobutyloxy-3-fluorophenyl)-5-fluoro-1,2,3,4-tetra hydroisoquinolin-6-yl)-2-methyl-propanoic acid] | 6.33 |
| CC1c2ccc(CCC(=O)O)cc2CCN1c1cc(OC2CCC2)cc(F)c1Cl (centres unmarked) [Example 37, 3-{2-[2-chloro-5-(cyclobutyloxy)-3-fluorophenyl]-1-methyl-1,2,3,4-tetrahydroisoquinolin-6-yl}-propanoic acid] | 6.42 |
| Cc1ccc(-n2nc(C)c(C#N)c2N2CCc3cc(C(C)CCCC(=O)O)ccc3C2)cc1 (single isomer, unassigned) [Example 140, 5-{2-[4-cyano-3-methyl-1-(4-methylphenyl)-1H-pyrazol-5-yl]-1,2,3,4-tetrahydroisoquinolin-6-yl} hexanoic acid] | 6.68 |
| CC1c2ccc(CCC(=O)O)cc2CCN1c1cc(OC2CCC2)ccc1F (centres unmarked) [Example 6, 3-(2-(5-cyclobutoxy-2-fluorophenyl)-1-methyl-1,2,3,4-tetrahydroisoquinolin-6-yl)-propanoic acid] | 6.38 |
| N#Cc1c(F)cc(OC(F)(F)F)cc1N1CCc2cc(CCC(=O)O)ccc2C1 [Example 44, 3-{2-[2-cyano-3-fluoro-5-(trifluoro-methoxy)phenyl]-1,2,3,4-tetra-hydroisoquinolin-6-yl}propanoic acid] | 5.63 |
| CC(CC(=O)O)c1ccc2c(c1)CCN(c1cc(OC(F)(F)F)ccc1F)C2 (single isomer, unassigned) [Example 8, 3-(2-(2-fluoro-5-(trifluoromethoxy)phenyl)-1,2,3,4-tetrahydro-isoquinolin-6-yl)-butanoic acid] | 6.38 |
| O=C(O)CCc1ccc2c(c1)CCN(c1cc(OC3CCC3)cc(F)c1Cl)C2 [Example 45, 3-{2-[2-chloro-5-(cyclobutyloxy)-3-fluorophenyl]-1,2,3,4-tetrahydro-isoquinolin-6-yl}propanoic acid] | 5.64 |
| CO[C@H]1C[C@H](Oc2cc(F)c(F)c(N3CCc4cc(CCc5nnn[nH]5)ccc4C3)c2)C1 [Example 132, 6-(2-(1H-tetrazol-5-yl)ethyl)-2-(2,3-difluoro-5-((1r,3r)-3-methoxylcyclobutoxy)-phenyl)-1,2,3,4-tetrahydroisoquinoline] | 6.39 |
| O=C(O)CCc1ccc2c(c1Cl)CCN(c1cc(OC(F)(F)F)ccc1F)C2 [Example 72, 3-{5-chloro-2-[2-fluoro-5-(trifluoromethoxy)phenyl]-1,2,3,4-tetrahydroiso-quinolin-6-yl}propanoic acid] | 5.93 |
| CO[C@H]1C[C@H](Oc2cc(F)c(C#N)c(N3CCc4cc([C@@H]5C[C@H]5C(=O)O)ccc4C3)c2)C1 [Example 103, (1R,2R)-2-(2-{2-cyano-3-fluoro-5-[(trans-3-methoxycyclobutyl)oxy]phenyl}-1,2,3,4-tetrahydroiso-quinolin-6-yl)cyclopropane-carboxylic acid] | 5.52 |

The next compounds have a higher pEC50 than those just listed; values first:

| pEC50 | SMILES |
| --- | --- |
| 7.23 | O=C(O)[C@H]1C[C@@H]1c1ccc2c(c1)CCN(c1cc(OC3CCC3)cc(Cl)c1F)C2 [Example 91, (1S,2S)-2-{2-[3-chloro-5-(cyclobutyloxy)-2-fluorophenyl]-1,2,3,4-tetrahydroisoquinolin-6-yl} cyclopropane carboxylic acid] |
| 7.70 | Cc1cnc(Oc2cc(Cl)c(F)c(N3CCc4cc(CCC(=O)O)ccc4C3)c2)s1 [Example 9] |
| 6.90 | CO[C@H]1C[C@H](Oc2cc(F)c(F)c(N3CCc4cc([C@@H]5C[C@H]5C(=O)O)ccc4C3)c2)C1 [Example 99, (1R,2R)-2-(2-{2,3-difluoro-5-[(trans-3-methoxycyclobutyl)oxy]phenyl}-1,2,3,4-tetrahydro-isoquinolin-6-yl)-cyclopropanecarboxylic acid] |
| 7.62 | COc1cc(OC2CCC2)cc(N2CCc3cc(CCC(=O)O)ccc3C2)c1F [Example 18, 3-{2-[5-(cyclobutyloxy)-2-fluoro-3-methoxyphenyl]-1,2,3,4-tetra-hydroisoquinolin-6-yl}propanoic acid] |
| 7.04 | Cc1ccc(-n2nc(C)c(F)c2N2CCc3cc(CCC(=O)O)ccc3C2)cc1 [Example 47, 3-{2-[4-fluoro-3-methyl-1-(4-methylphenyl)-1H-pyrazol-5-yl]-1,2,3,4-tetrahydroisoquinolin-6-yl} propanoic acid] |
| 7.01 | O=C(O)CCc1ccc2c(c1)CCN(c1cc(SC3CCC3)ncc1F)C2 [Example 26, 3-{2-[2-(cyclobutylsulfanyl)-5-fluoropyridin-4-yl]-1,2,3,4-tetrahydro-isoquinolin-6-yl}propanoic acid] |
| 7.21 | O=C(O)CCc1ccc2c(c1)CCN(c1cc(OC(F)(F)F)ccc1F)C2 [Example 27, 3-{2-[2-fluoro-5-(trifluoro-methoxy)phenyl]-1,2,3,4-tetrahydro-isoquinolin-6-yl}propanoic acid] |
| 7.38 | C[C@H]1C[C@H](Oc2cc(F)c(F)c(N3CCc4c(ccc([C@@H]5C[C@H]5C(=O)O)c4F)C3)c2)C1 [Example 112, (1R,2R)-2-(2-{2,3-difluoro-5-[(trans-3-methylcyclobutyl)oxy]phenyl}-5-fluoro-1,2,3,4-tetrahydroisoquinolin-6-yl) cyclopropanecarboxylic acid] |
| 7.85 | O=C(O)CCc1ccc2c(c1F)CCN(c1nc(OC3CCC3)ccc1F)C2 [Example 63, 3-{2-[6-(cyclobutyloxy)-3-fluoro-pyridin-2-yl]-5-fluoro-1,2,3,4-tetra-hydro-isoquinolin-6-yl} propanoic acid] |
| 6.84 | N#Cc1ccc(OC(F)(F)F)cc1N1CCc2c(ccc([C@H]3C[C@@H]3C(=O)O)c2F)C1 [Example 117, (1S,2S)-2-{2-[2-cyano-5-(trifluoromethoxy)phenyl]-5-fluoro-1,2,3,4-tetrahydroisoquinolin-6-yl} cyclopropane-carboxylic acid] |
| 7.21 | O=C(O)[C@@H]1C[C@H]1c1ccc2c(c1)CCN(c1cc(OC3CCC3)cc(Cl)c1F)C2 [Example 114, (1R,2R)-2-{2-[3-chloro-5-(cyclobutyloxy)-2-fluorophenyl]-1,2,3,4-tetrahydroisoquinolin-6-yl} cyclopropanecarboxylic acid] |
| 7.14 | O=C(O)[C@@H]1C[C@H]1c1ccc2c(c1F)CCN(c1cc(OC(F)(F)F)cc(F)c1Cl)C2 [Example 121, (1R,2R)-2-{2-[2-chloro-3-fluoro-5-(trifluoromethoxy)phenyl]-5-fluoro-1,2,3,4-tetra-hydroisoquinolin-6-yl}cyclo-propanecarboxylic acid] |
